Source: patent US11471436B2, “Dihydronaphthalene derivative” (ONO PHARMACEUTICAL CO., LTD., priority 2014, dated 2022)

Legend:
human S1P1 (EDG-1) [1] = target: T1, human S1P1 (EDG-1) (Homo sapiens, UniProt P21453); assay: Inhibition of binding of [33P]-S1P to S1P1, CHO membrane fractions; conditions: [33P]-S1P binding, membrane fractions of CHO cells overexpressing human S1P1
Method: (§1) Measurement of the Inhibitory Action of the Compound of the Present Invention on Binding of [^33P]-S1P to S1P5 (EDG-8)
(§2) A reaction was carried out in a 96-well microplate by using membrane fractions of Chinese hamster ovary (CHO) cells each of which was made to overexpress human S1P1 (EDG-1) or human S1P5 gene respectively, in an amount of the membrane fraction of 1 mg protein/mL. To each of the wells, 100 μL of a vehicle (DMSO) solution or a ligand solution at a two-fold concentration diluted with Binding Buffer (50 mmol/L, Tris pH 7.5, 5 mmol/L, MgCl2, 0.5% BSA and Complete EDTA free (1 tablet/50 mL)) and […] of 0.16 nmol/L [^33P]-S1P (manufactured by American Radiolabeled Chemicals, Inc.) diluted with Binding Buffer were added, and thereafter, each of membrane fraction solutions (50 μL) was added and the reaction was carried out at room temperature for 60 minutes. After the reaction, suction filtration was carried out by using a 96-well UNIFILTER, and the 96-well microplate was washed with Wash Buffer (50 mmol/L, Tris pH 7.5, 0.5% BSA) (150 mL), and thereafter, was dried at 60° C. for 45 minutes. MicroScint (trade name) 20 (50 μL/well) was added and the plate was covered with TopSeal-A, and thereafter, the radioactivity was measured by using TopCount (manufactured by PerkinElmer Inc.).

human S1P5 (EDG-8) [2] = target: T2, human S1P5 (EDG-8) (Homo sapiens, UniProt Q9H228); assay: Inhibition of binding of [33P]-S1P to S1P5, CHO membrane fractions; conditions: for IC50: [33P]-S1P binding, membrane fractions of CHO cells overexpressing human S1P5
T2 sequence (Q9H228 whole entry): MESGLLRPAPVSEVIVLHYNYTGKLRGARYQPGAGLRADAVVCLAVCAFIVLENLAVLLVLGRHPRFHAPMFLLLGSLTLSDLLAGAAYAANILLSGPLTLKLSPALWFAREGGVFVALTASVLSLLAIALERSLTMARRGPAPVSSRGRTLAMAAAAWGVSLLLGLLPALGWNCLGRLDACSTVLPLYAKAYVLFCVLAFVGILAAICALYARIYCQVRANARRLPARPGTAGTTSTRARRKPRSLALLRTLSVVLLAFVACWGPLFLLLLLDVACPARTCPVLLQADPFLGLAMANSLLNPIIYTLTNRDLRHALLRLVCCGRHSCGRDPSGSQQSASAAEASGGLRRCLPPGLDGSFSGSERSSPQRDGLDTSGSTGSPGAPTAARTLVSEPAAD
Method: as §1, §2

human S1P5 (EDG-8) [3] = target: T2, human S1P5 (EDG-8); assay: S1P receptor agonist activity by monitoring intracellular cyclic AMP, CHO cells overexpressing S1P5; format: cell-based; conditions: forskolin-stimulated CHO cells overexpressing human S1P5, read-out: EC 50 value with regard to S1P5 receptor
Method: (§3) Evaluation of S1P Receptor Agonist Activities of the Compound of the Present Invention by Monitoring the Concentration of Produced Intracellular Cyclic AMP
(§4) CHO cells which were made to overexpress either human S1P1 (EDG-1) or human S1P5 (EDG-8) gene respectively were cultured in Ham's F12 Medium (manufactured by Gibco-BRL) containing 10% FBS (fetal bovine serum), penicillin/streptomycin and geneticin (0.25 mg/mL). The medium was removed from the cultured cells, the cultured cells were washed once with phosphate-buffered saline, and the cultured cells were treated with a vehicle (DMSO) solution or a compound solution each of which was diluted with Buffer (Hanks' balanced salt solution containing 20 mmol/L HEPES, 0.1 or 0.2% BSA, 1 mmol/L IBMX and 50 μmol/L forskolin) at 37° C. for 30 minutes. Thereafter, the cultured cells were washed once with phosphate-buffered saline. After lysing the cells, the concentration of cyclic AMP in the cell lysate were measured by using cAMP Assay Kit (GE Healthcare).

human S1P1 (EDG-1) [4] = target: T1, human S1P1 (EDG-1); assay: S1P receptor agonist activity by monitoring intracellular cyclic AMP, CHO cells overexpressing S1P1; format: cell-based; conditions: forskolin-stimulated CHO cells overexpressing human S1P1, read-out: EC 50 value with regard to S1P1 receptor
Method: as §3, §4

T1 sequence (P21453 whole entry): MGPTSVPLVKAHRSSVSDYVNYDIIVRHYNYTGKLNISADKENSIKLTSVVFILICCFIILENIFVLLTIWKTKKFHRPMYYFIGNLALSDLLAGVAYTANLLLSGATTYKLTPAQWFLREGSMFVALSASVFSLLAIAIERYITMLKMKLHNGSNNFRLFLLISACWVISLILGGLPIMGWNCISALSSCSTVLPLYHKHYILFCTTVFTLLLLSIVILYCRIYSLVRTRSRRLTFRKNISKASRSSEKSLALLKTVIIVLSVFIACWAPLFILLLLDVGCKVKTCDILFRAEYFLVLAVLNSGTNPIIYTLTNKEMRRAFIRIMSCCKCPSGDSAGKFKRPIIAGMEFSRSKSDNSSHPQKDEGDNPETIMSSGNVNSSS

IC50 (human S1P1 (EDG-1) [1]) [nM] | IC50 (human S1P5 (EDG-8) [2]) [nM] | EC50 (human S1P5 (EDG-8) [3]) [nM] | EC50 (human S1P1 (EDG-1) [4]) [nM] | Compound | balance of an S1P5 receptor agonist activity against an S1P1 receptor agonist activity (human S1P5 (EDG-8) [2]; conclusion in words from binding IC50 values S1P1 vs S1P5)
475 | 76 | – | – | CCCCc1ccc(Oc2ccc3c(c2)CCC(CN2CC(C(=O)O)C2)=C3C)cc1.Cl [Comparative Compound A, 1-{[6-(4-butylphenoxy)-1-methyl-3,4-dihydronaphthalen-2-yl]methyl}azetidine-3-carboxylic acid hydrochloride, reference compound] | had both S1P1 and S1P5 receptor agonist activities
> 10000 | 67.2 | – | – | CC1=C(CN2CC(C(=O)O)C2)CCc2cc(-c3ccccn3)ccc21 [Example 14 (3), 1-{[1-Methyl-6-(2-pyridinyl)-3,4-dihydro-2-naphthalenyl]methyl}-3-azetidinecarboxylic acid] | –
> 10000 | 22.4 | – | – | CC1=C(CN2CC(C(=O)O)C2)CCc2cc(-c3ccccc3)ccc21 [Example 14 (1), 1-[(1-Methyl-6-phenyl-3,4-dihydro-2-naphthalenyl)methyl]-3-azetidinecarboxylic acid] | –
> 10000 | 16 | 0.2 | 9990 | CC1Cc2cc(OC3CCCCC3)ccc2C=C1CN1CC(C(=O)O)C1 (stereo not shown) [Example 21, 1-{[6-(Cyclohexyloxy)-3-methyl-3,4-dihydro-2-naphthalenyl]methyl}-3-azetidinecarboxylic acid] | –
> 10000 | 57.2 | – | – | O=C(O)C1CN(CC2=Cc3ccc(OC4CCCCC4)cc3CC2)C1 [Example 9 (2), 1-{[6-(Cyclohexyloxy)-3,4-dihydro-2-naphthalenyl]methyl}-3-azetidinecarboxylic acid] | –
